The record followed here is publication PMC9514659, “Giardia duodenalis: Flavohemoglobin is involved in drug biotransformation and resistance to albendazole” (PLoS Pathogens, 2022).

The test has as its target T1, flavohemoglobin (gFlHb) (Giardia duodenalis, UniProt E2RTZ4).
T1 construct: gene hmpA; recombinant gFlHb fused to an N-terminal His6-tag
Nature of the test: UV-visible spectral titration of ferric heme at […] nm (also stimulates NADH oxidase activity). The format is binding.

The structures appear in SMILES notation.

T1 sequence (E2RTZ4 whole entry, the tested form may be a part): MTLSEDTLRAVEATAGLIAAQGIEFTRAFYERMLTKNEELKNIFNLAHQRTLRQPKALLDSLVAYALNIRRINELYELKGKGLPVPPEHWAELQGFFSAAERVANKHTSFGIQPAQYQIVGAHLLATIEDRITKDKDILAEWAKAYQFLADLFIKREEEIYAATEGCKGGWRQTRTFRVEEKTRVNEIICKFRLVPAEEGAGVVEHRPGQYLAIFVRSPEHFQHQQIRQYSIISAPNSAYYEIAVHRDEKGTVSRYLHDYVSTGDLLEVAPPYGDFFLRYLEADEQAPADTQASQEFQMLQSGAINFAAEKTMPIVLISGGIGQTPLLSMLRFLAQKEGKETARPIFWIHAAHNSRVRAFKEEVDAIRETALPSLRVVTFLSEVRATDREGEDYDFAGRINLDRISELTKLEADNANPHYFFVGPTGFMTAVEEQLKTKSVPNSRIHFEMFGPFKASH

The compound `CCCSc1ccc2nc(NC(=O)OC)[nH]c2c1` [ABZ, albendazole] gave a Kd of 23 ± 9 nM.

For `CCC[S+]([O-])c1ccc2[nH]c(NC(=O)OC)nc2c1` (centres unmarked) [ABZSO, albendazole sulfoxide], binding was put at a Kd of 19 ± 8 nM.

As a reminder, the Kd is a measure of binding affinity in units of concentration. A lower Kd goes with tighter binding.
